Holding throughout (type): biochemical
Experiment [1] deals with T1, yeast topoisomerase 2 (yTop2) (Saccharomyces cerevisiae, UniProt P06786).
T1 construct: gene TOP2
T1 sequence (P06786 1-1428): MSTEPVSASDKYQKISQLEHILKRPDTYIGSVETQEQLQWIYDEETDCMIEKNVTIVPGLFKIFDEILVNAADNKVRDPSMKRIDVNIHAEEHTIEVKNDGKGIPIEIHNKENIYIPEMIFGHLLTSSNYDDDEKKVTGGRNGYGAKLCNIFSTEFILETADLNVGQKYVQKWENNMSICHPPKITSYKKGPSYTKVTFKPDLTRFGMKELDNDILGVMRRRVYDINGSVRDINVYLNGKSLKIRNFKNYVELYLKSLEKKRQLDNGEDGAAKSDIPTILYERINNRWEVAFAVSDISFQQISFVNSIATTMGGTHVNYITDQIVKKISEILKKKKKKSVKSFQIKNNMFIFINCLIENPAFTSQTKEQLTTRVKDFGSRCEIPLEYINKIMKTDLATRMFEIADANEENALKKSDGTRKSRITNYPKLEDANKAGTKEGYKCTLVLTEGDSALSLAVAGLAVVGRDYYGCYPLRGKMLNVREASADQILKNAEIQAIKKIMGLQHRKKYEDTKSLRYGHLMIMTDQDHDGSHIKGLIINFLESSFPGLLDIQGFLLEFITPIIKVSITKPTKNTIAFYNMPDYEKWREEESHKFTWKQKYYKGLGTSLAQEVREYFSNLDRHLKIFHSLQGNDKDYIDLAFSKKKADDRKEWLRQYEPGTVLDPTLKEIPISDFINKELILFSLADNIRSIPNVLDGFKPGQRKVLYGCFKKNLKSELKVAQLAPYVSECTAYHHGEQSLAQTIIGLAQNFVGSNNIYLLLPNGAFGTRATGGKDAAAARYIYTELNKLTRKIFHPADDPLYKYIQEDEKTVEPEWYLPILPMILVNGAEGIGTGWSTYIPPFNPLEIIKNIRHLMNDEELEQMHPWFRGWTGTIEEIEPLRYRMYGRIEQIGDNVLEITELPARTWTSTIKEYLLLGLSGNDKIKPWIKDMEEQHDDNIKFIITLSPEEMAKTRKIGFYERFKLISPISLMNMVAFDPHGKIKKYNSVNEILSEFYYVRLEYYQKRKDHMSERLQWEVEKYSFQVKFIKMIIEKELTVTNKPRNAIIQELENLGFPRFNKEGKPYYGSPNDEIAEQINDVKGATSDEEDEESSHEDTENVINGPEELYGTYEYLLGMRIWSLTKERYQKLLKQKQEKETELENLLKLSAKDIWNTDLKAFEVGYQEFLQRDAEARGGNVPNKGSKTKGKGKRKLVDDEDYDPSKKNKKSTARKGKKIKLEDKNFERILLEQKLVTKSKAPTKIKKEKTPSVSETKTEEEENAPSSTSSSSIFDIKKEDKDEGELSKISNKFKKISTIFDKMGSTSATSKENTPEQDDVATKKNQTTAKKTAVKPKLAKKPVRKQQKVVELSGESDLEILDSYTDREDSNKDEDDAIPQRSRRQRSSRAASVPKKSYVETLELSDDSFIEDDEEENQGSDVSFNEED
Briefly: in vitro pUC18 plasmid linearization (DNA cleavage) assay, reference Top2 poison.

For experiment [2], the target named is T1, yeast topoisomerase 2 (yTop2). Briefly: in vitro pUC18 plasmid linearization (DNA cleavage) assay; supported by TOP2 overexpression hypersensitivity and resistant top2 mutants.
Another experiment deals with T2, human Top2α (Homo sapiens, UniProt P11388).
T2 construct: gene TOP2A
Briefly: kinetoplast DNA decatenation assay with purified human TOP2-α.

2 molecules from paper PMC5310657, “Effects of an unusual poison identify a lifespan role for Topoisomerase 2 in Saccharomyces cerevisiae” (Aging (Albany NY), 2017) can be followed below.

Each structure is given as a SMILES string.

T2 sequence (P11388 whole entry): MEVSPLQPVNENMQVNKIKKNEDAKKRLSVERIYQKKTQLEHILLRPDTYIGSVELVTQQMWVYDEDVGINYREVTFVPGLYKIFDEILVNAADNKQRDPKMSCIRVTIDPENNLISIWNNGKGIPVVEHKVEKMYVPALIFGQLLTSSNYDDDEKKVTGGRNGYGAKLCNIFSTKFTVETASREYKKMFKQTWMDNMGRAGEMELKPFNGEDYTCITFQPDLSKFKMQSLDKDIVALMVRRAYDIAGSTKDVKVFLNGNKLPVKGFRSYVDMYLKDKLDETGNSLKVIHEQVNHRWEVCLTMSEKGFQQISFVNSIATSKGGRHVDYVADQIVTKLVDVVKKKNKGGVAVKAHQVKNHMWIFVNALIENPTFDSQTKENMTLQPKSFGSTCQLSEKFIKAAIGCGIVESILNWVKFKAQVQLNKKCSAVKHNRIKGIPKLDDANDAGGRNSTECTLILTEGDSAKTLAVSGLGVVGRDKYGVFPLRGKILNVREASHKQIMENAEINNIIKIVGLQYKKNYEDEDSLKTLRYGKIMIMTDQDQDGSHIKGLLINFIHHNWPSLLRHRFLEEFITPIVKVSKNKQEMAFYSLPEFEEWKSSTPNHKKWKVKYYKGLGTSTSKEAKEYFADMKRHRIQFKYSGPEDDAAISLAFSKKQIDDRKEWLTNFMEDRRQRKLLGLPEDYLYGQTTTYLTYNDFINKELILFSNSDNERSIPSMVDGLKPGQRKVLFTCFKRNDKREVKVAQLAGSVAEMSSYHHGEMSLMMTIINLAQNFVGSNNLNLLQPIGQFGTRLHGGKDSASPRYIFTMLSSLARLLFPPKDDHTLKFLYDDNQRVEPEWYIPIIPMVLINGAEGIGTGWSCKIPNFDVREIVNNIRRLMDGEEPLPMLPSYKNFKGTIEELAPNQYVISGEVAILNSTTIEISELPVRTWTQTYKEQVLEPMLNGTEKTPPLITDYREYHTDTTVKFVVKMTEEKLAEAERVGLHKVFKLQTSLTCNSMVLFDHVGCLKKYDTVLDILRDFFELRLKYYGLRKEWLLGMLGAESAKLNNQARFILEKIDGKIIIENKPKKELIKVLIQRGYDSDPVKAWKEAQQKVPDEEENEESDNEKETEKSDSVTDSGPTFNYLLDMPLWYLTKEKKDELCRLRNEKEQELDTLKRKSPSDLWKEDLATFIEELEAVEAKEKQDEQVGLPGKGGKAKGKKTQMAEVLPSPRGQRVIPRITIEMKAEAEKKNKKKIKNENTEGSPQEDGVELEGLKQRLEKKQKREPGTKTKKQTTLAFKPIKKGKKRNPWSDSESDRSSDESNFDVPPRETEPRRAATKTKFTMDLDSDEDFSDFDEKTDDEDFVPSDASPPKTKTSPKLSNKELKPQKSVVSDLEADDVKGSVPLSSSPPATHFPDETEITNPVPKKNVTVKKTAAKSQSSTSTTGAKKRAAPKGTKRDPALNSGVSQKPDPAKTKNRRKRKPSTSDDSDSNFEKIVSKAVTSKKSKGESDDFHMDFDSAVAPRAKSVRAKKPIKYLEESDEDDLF

With `COc1cc([C@@H]2c3cc4c(cc3[C@@H](O[C@@H]3O[C@@H]5CO[C@@H](C)O[C@H]5[C@H](O)[C@H]3O)[C@H]3COC(=O)[C@H]23)OCO4)cc(OC)c1O` [ETOP, etoposide], the “in vitro pUC18 plasmid linearization (DNA cleavage) assay, reference Top2 poison” value in experiment [1] is on record as “formation by yTop2 of DSBs in plasmid DNA (Fig. 7A & B), albeit less efficiently than etoposide”. As a reminder, the IC50 is the concentration at which inhibition is half-maximal. A low value points to greater potency. `c1ccc2nc3c(nc2c1)[nH]c1ccccc13` [LS1, 6H-Indolo [2,3-b] quinoxaline]: the “in vitro pUC18 plasmid linearization (DNA cleavage) assay; supported by TOP2 ove” value in experiment [2] is recorded as “LS1 promotes the in vitro formation by yTop2 of DSBs in plasmid DNA (Fig. 7A & B)”. Also, the IC50 against human Top2α came to 3 µM.
